Consider 21 compounds from patent publication US9328106B2, “Cyclic ether pyrazol-4-yl-heterocyclyl-carboxamide compounds and methods of use” (Genentech, Inc., priority 2012, dated 2016).

Structures are written as SMILES.

The assay deals with PIM1 (Homo sapiens (Human), UniProt P11309). The experiment in a line: biochemical. To be noted: 20 pM PIM1, 1 μM FAM-peptide, 10 μM ATP, 90 minutes at room temperature; read-out: PIM1 LC3K (KI). It is filed as biochemical.
Chain of PIM1 (P11309 whole entry): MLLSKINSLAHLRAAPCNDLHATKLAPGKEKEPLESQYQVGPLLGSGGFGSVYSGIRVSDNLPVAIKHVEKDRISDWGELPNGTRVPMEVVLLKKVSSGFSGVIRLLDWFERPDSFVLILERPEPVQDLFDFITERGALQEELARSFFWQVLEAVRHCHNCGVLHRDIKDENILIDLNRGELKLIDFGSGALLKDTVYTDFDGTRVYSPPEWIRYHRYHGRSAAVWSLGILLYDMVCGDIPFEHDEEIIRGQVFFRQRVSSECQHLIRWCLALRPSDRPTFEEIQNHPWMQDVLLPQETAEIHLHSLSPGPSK
In general, Ki refers to a measure of affinity in units of concentration, obtained from inhibition or displacement. Regarding `COc1ccc(-c2nc(C(=O)Nc3cnn(C)c3[C@@H]3CC[C@@H](N)[C@H](F)CO3)ccc2F)c(F)c1` [Example 226, N-(5-((2S,5R,6S)-5-amino-6-fluorooxepan-2-yl)-1-methyl-1H-pyrazol-4-yl)-5-fluoro-6-(2-fluoro-4-methoxyphenyl)picolinamide], the Ki was 0.036 nM. Take `Cn1ncc(NC(=O)c2ccc(F)c(-c3c(F)cc(OC4CCOCC4)cc3F)n2)c1[C@@H]1CC[C@@H](N)[C@H](F)CO1` [Example 197, N-(5-((2S,5R,6S)-5-Amino-6-fluorooxepan-2-yl)-1-methyl-1H-pyrazol-4-yl)-6-(2,6-difluoro-4-((tetrahydro-2H-pyran-4-yl)oxy)phenyl)-5-fluoropicolinamide]: the Ki was 0.018 nM. On to `Cn1ncc(NC(=O)c2nc(-c3c(F)cccc3F)sc2N)c1C1CCC(N)COC1` (stereo not drawn) [Example 147, 5-amino-N-[5-(6-aminooxepan-3-yl)-1-methyl-pyrazol-4-yl]-2-(2,6-difluorophenyl)thiazole-4-carboxamide], for which the Ki was found to be 0.141 nM. The result for `Cn1ncc(NC(=O)c2csc(-c3cc(F)ccc3F)n2)c1[C@@H]1CC[C@@H](N)[C@H](F)CO1` [Example 301, N-(5-((2S,5R,6S)-5-amino-6-fluorooxepan-2-yl)-1-methyl-1H-pyrazol-4-yl)-2-(2,5-difluorophenyl)thiazole-4-carboxamide] reads 0.058 nM; that for `CO[C@H]1CO[C@H](c2c(NC(=O)c3nc(-c4cc(Cl)ccc4F)sc3N)cnn2C)CC[C@H]1N` [Example 281, 5-amino-N-(5-((2S,5R,6R)-5-amino-6-methoxyoxepan-2-yl)-1-methyl-1H-pyrazol-4-yl)-2-(5-chloro-2-fluorophenyl)thiazole-4-carboxamide], 0.007 nM. As to `COCc1cc(F)c(-c2nc(C(=O)Nc3cnn(C)c3[C@@H]3CC[C@@H](N)[C@H](F)CO3)ccc2F)c(F)c1` [Example 199, N-(5-((2S,5R,6S)-5-amino-6-fluorooxepan-2-yl)-1-methyl-1H-pyrazol-4-yl)-6-(2,6-difluoro-4-(methoxymethyl)phenyl)-5-fluoropicolinamide], the inhibition constant Ki is 0.031 nM.

With `Cn1ncc(NC(=O)c2csc(-c3cncc(F)c3)n2)c1[C@@H]1CC[C@@H](N)[C@@H](F)CO1` [Example 246, N-(5-((2S,5R,6R)-5-amino-6-fluorooxepan-2-yl)-1-methyl-1H-pyrazol-4-yl)-2-(5-fluoropyridin-3-yl)thiazole-4-carboxamide], the Ki was 5.76 nM. Under `Cc1nn(C)cc1-c1nc(C(=O)Nc2cnn(C)c2[C@@H]2CC[C@@H](N)[C@H](F)CO2)cs1` [Example 241, N-(5-((2S,5R,6S)-5-amino-6-fluorooxepan-2-yl)-1-methyl-1H-pyrazol-4-yl)-2-(1,3-dimethyl-1H-pyrazol-4-yl)thiazole-4-carboxamide] stands 0.283 nM; under `Cn1ncc(NC(=O)c2nc(-c3c(F)cccc3F)sc2N)c1[C@H]1CC[C@H](N)C(F)(F)CO1` [Example 152], 0.031 nM. Regarding `Cc1cc(F)c(-c2nc(C(=O)Nc3cnn(C)c3[C@@H]3CC[C@@H](N)[C@H](F)CO3)cs2)c(F)c1` [Example 312, N-(5-((2S,5R,6S)-5-amino-6-fluorooxepan-2-yl)-1-methyl-1H-pyrazol-4-yl)-2-(2,6-difluoro-4-methylphenyl)thiazole-4-carboxamide], the Ki stood at 0.003 nM.

`Cn1ncc(NC(=O)c2ccc(F)c(-c3c(F)cccc3F)n2)c1[C@@H]1CC[C@@H](N)[C@H](F)CO1` [Example 195, N-(5-((2S,5R,6S)-5-amino-6-fluorooxepan-2-yl)-1-methyl-1H-pyrazol-4-yl)-6-(2,6-difluorophenyl)-5-fluoropicolinamide]: the inhibitory constant (Ki) was 0.025 nM.

With `Cn1ncc(NC(=O)c2csc(-c3cccc(F)c3-c3cccc(F)c3Cl)n2)c1[C@@H]1CC[C@@H](N)[C@@H](F)CO1` [Example 251, N-(5-((2S,5R,6R)-5-amino-6-fluorooxepan-2-yl)-1-methyl-1H-pyrazol-4-yl)-2-(2′-chloro-3′,6-difluoro-[1,1′-biphenyl]-2-yl)thiazole-4-carboxamide], the inhibition constant (Ki) came to 630 nM. In the case of `Cn1ncc(NC(=O)c2nc(-c3c(F)cccc3F)sc2N)c1[C@H]1OC[C@](C)(CN)CO1` [Example 175, 5-Amino-N-[5-[5-(aminomethyl)-5-methyl-1,3-dioxan-2-yl]-1-methyl-pyrazol-4-yl]-2-(2,6-difluorophenyl)thiazole-4-carboxamide], the inhibition constant (Ki) was 0.036 nM. Under `CO[C@H]1CO[C@H](c2c(NC(=O)c3nc(-c4c(F)cccc4Cl)sc3N)cnn2C)CC[C@H]1N` [Example 280, 5-amino-N-(5-((2S,5R,6R)-5-amino-6-methoxyoxepan-2-yl)-1-methyl-1H-pyrazol-4-yl)-2-(2-chloro-6-fluorophenyl)thiazole-4-carboxamide] stands 0.014 nM.

As to `COc1cc(F)c(-c2nc(C(=O)Nc3cnn(C)c3[C@@H]3CC[C@@H](N)[C@@H](F)CO3)cs2)c(F)c1` [Example 288, N-(5-((2S,5R,6R)-5-amino-6-fluorooxepan-2-yl)-1-methyl-1H-pyrazol-4-yl)-2-(2,6-difluoro-4-methoxyphenyl)thiazole-4-carboxamide], the inhibition constant Ki is 0.035 nM.

Take `Cn1ncc(NC(=O)c2nc(-c3c(F)cccc3F)sc2N)c1C1CCC(O)CCO1` (stereo not drawn) [Example 134, 5-amino-2-(2,6-difluorophenyl)-N-[5-(5-hydroxyoxepan-2-yl)-1-methyl-pyrazol-4-yl]thiazole-4-carboxamide]: the inhibitory constant (Ki) is 0.054 nM. In the case of `COc1cccc(-c2nc(C(=O)Nc3cnn(C)c3[C@@H]3CC[C@@H](N)[C@H](F)CO3)cs2)c1` [Example 357, N-(5-((2S,5R,6S)-5-amino-6-fluorooxepan-2-yl)-1-methyl-1H-pyrazol-4-yl)-2-(3-methoxyphenyl)thiazole-4-carboxamide], the Ki amounted to 0.035 nM.

As for `Cn1ncc(NC(=O)c2nc(-c3cccc(F)c3F)sc2N)c1[C@@H]1CC[C@@H](N)[C@@H](F)CO1` [Example 181, 5-Amino-N-[5-[(2S,5R,6R)-5-amino-6-fluoro-oxepan-2-yl]-1-methyl-pyrazol-4-yl]-2-(2,3-difluorophenyl)thiazole-4-carboxamide], the inhibition constant Ki was 0.004 nM. In the case of `Cn1ncc(NC(=O)c2nc(-c3c(F)cccc3F)sc2N)c1[C@@H]1C[C@@H](N)[C@@H](F)CCO1` (stereo in doubt) [Example 170, 5-Amino-N-[5-[4-amino-5-fluoro-oxepan-2-yl]-1-methyl-pyrazol-4-yl]-2-(2,6-difluorophenyl)thiazole-4-carboxamide], the inhibition constant Ki worked out at 0.126 nM. In the case of `Cn1ncc(NC(=O)c2nc(-c3ccccc3OC(F)(F)F)sc2N)c1[C@@H]1CC[C@@H](N)[C@H](F)CO1` [Example 157, 5-amino-N-(5-((2S,5R,6S)-5-amino-6-fluorooxepan-2-yl)-1-methyl-1H-pyrazol-4-yl)-2-(2-(trifluoromethoxy)phenyl)thiazole-4-carboxamide], the inhibition constant (Ki) was determined as 0.965 nM. Turning to `Cc1ccc(F)c(-c2nc(C(=O)Nc3cnn(C)c3[C@@H]3CC[C@@H](N)[C@H](F)CO3)c(N)s2)c1` [Example 292, 5-amino-N-(5-((2S,5R,6S)-5-amino-6-fluorooxepan-2-yl)-1-methyl-1H-pyrazol-4-yl)-2-(2-fluoro-5-methylphenyl)thiazole-4-carboxamide], the inhibition constant (Ki) worked out at 0.024 nM.
